Experimental findings from US20250161338A1, “Compounds for Anti-aging Intervention” (AGENCY FOR SCIENCE, TECHNOLOGY AND RESEARCH, priority 2022, published 2025) are described below.

The subject of experiment [1] is CEN.PK113-7D snflΔ deletion strain. Put plainly: Growth sensitivity of SNFl gene deletion strain. Format: cell-based, Saccharomyces cerevisiae. To be noted: different concentrations; compared to wild-type strain. From the text:
The prototrophic wild-type Saccharomyces cerevisiae CEN.PK113-7D yeast strain genetic background (Euroscarf, Köhlerweg, Oberursel, Germany), and the Saccharomyces cerevisiae BY4743 strain (Euroscarf, Köhlerweg, Oberursel, Germany) were used. The CEN.PK113-7D snflΔ deletion strain was constructed. The standard rich Yeast-Extract Peptone Dextrose (YPD) medium (1% w/v Bacto yeast extract, 2% w/v Bacto peptone, and 2% w/v glucose) (BD, Franklin Lakes, New Jersey, United States of America), YPD agar (2.5% w/v Bacto agar) (BD, Franklin Lakes, New Jersey, United States of America), and synthetic defined (SD) medium (BD, Franklin Lakes, New Jersey, United States of America) used here contained 6.7 g/L Difco™ Yeast Nitrogen Base (without amino acids and with ammonium sulfate) (BD, Franklin Lakes, New Jersey, United States) and 2% w/v glucose. Rapamycin (Enzo Life Sciences, Farmingdale, New York, United States) stock solution was prepared in dimethyl sulfoxide (DMSO) (Sigma-Aldrich, St. Louis, Missouri, United States of America). […]

Experiment [2] relates to HEK293 cells. Briefly: CLS in human cells, propidium iodide fluorescence-based method (HEK293). Format: cell-based. To be noted: sixth day after seeding. As for the experimental part:
(§1) Human embryonic kidney 293 (HEK293) cells (ATCC, Manassas, Virginia, United States of America), lung epithelial (A549) cells (ATCC, Manassas, Virginia, United States of America) and fibroblast (IMR90) cells (ATCC, Manassas, Virginia, United States of America) were cultured in the standard D10 medium, consisting of high-glucose DMEM (HyClone, Cytiva, Marlborough, Massachusetts, USA) supplemented with 10% Fetal Bovine Serum (FBS) (Gibco™, ThermoFisher Scientific, Waltham, Massachusetts, USA) and 1% Penicillin Streptomycin Solution (Gibco™, ThermoFisher Scientific, Waltham, Massachusetts, USA). All cells were cultured in a humidified incubator with 5% CO2 at 37° C.
The stock solution of rapamycin, hemin, 5-fluorouracil, atorvastatin, and methotrexate was prepared in DMSO, followed by serial dilution to form various concentrations used in the experiment. The final DMSO concentration was kept at 0.05% in all experiments. The stock solution of 2,5-anhydro-D-mannitol was prepared in D10 medium. The chemical library used in screening were tested at 1 μM concentrations. Controls used were the same as the solvent applied, DMSO or water.
The assay was performed by preparing the cells with PI (2 μg/mL or 5 μg/mL) in a D10 medium. […] At different age time points, reading was taken with a Synergy MX microplate reader (BioTek, Winooski, Vermont, United States) at 535 nm excitation and 617 nm emission.

Experiment [3] concerns HEK293 cell line. Put plainly: CLS in human cells using crystal violet outgrowth assay. Conditions: Day 4 culture (FIG. 18A); seven days of outgrowth. Format: cell-based. As for the experimental part: as §1
80,000 cells were seeded in a 96-well culture plate with or without compound treatment. On Day 4, Day 6, and Day 8 after seeding, floating dead cells were aspirated with exhausted D10 medium. Then, attached cells were gently washed with 1×PBS to remove D10 medium residue and treated with 0.2 mL of 0.25% trypsin. Cells were gently mixed by pipetting and a 2% aliquot (4 μL) was transferred to 6-well experiment plates with fresh D10 medium. […]
In this approach, an outgrowth assay was used to determine the number of live cells in the 6-well experiment plate using crystal violet staining. […] These live cells were then stained with crystal violet dye and assessed qualitatively.

Consider `OC[C@H]1O[C@H](CO)[C@@H](O)[C@@H]1O` [2,5-AM, 2,5-anhydro-D-mannitol], for which the “growth of snflΔ deletion strain” value in experiment [1] is “inhibited the growth of snflΔ deletion strain compared to wild-type strain”. Besides, the “more live cells compared to the untreated group” value was 34.39% in experiment [2] (2.5 mM) and 58.7% in experiment [2] (5 mM). In experiment [3], the “cellular lifespan (crystal violet, qualitative)” value is recorded as “able to increase cellular lifespan”.
